Test results reported in patent US20110152343A1, “PROTEASE INHIBITORS AND BROAD-SPECTRUM ANTIVIRAL” (Functional Genetics, Inc., priority 2009, published 2011).

Test system: RSV
Experiment: RSV infection, timing of administration (production of virus particles)

`N=C(N)c1ccc2oc(/C=C/c3nc4ccc(C(=N)N)cc4[nH]3)cc2c1` [NSC 369723] was tested, and the “inhibition of the production of virus particles (pfu/ml)” value (administration by roughly 18 hours after infection with RSV) was “much reduced or lost” and the “inhibition of the production of virus particles (pfu/ml)” value (administration from about 6-12 hours after infection with RSV) was “moderately inhibited”.
